Measurements as given in PubChem BioAssay AID330 (DTP/NCI, 2004).
Values joined by “and” are separate entries in the source; they are usually repeats but may differ in a detail not shown here. Equal values may be shown once. Toxic doses and inconclusive results are not listed. The calls were made as follows: active = survival T/C of 150% or more; inactive = T/C below 125% in these data. Peptide text beside a SMILES is read from it.

System: P388 leukemia ip, CD2F1 mice, survival T/C
Test: NCI In Vivo Anticancer Drug Screen. Data for tumor model P388 Leukemia (intraperitoneal) in CD2F1 (CDF1) mice
Conditions: endpoint: median survival time, higher = longer survival
In short: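 Mice carrying the transplanted tumor received test compound or vehicle. Survival was recorded in each group, and the value is the treated-group measurement divided by that of the vehicle-treated control group.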

[1] = dose: 50.0 mg/kg/injection, schedule: Q01DX005 (ip), vehicle: saline with Tween-80
[2] = dose: 100.0 mg/kg/injection, schedule: Q01DX005 (ip), vehicle: saline with Tween-80
[3] = dose: 6.25 mg/kg/injection, schedule: Q01DX009 (ip), vehicle: saline with Tween-80
[4] = dose: 12.5 mg/kg/injection, schedule: Q01DX009 (ip), vehicle: saline with Tween-80
[5] = dose: 200.0 mg/kg/injection, schedule: Q01DX005 (ip), vehicle: saline with Tween-80
[6] = dose: 25.0 mg/kg/injection, schedule: Q01DX005 (ip), vehicle: Klucel (hydroxypropylcellulose) (HPC)
[7] = dose: 50.0 mg/kg/injection, schedule: Q01DX005 (ip), vehicle: Klucel (hydroxypropylcellulose) (HPC)
[8] = dose: 100.0 mg/kg/injection, schedule: Q01DX005 (ip), vehicle: Klucel (hydroxypropylcellulose) (HPC)
[9] = dose: 200.0 mg/kg/injection, schedule: Q01DX005 (ip), vehicle: Klucel (hydroxypropylcellulose) (HPC)
[10] = dose: 60.0 mg/kg/injection, schedule: Q01DX005 (ip), vehicle: saline with Tween-80
[11] = dose: 240.0 mg/kg/injection, schedule: Q01DX005 (ip), vehicle: saline with Tween-80
[12] = dose: 60.0 mg/kg/injection, schedule: Q01DX005 (ip), vehicle: Klucel (hydroxypropylcellulose) (HPC)
[13] = dose: 120.0 mg/kg/injection, schedule: Q01DX005 (ip), vehicle: Klucel (hydroxypropylcellulose) (HPC)
[14] = dose: 240.0 mg/kg/injection, schedule: Q01DX005 (ip), vehicle: Klucel (hydroxypropylcellulose) (HPC)
[15] = dose: 50.0 mg/kg/injection, schedule: Q01DX009 (ip), vehicle: saline with Tween-80
[16] = dose: 100.0 mg/kg/injection, schedule: Q01DX009 (ip), vehicle: saline with Tween-80
[17] = dose: 200.0 mg/kg/injection, schedule: Q01DX009 (ip), vehicle: saline with Tween-80
[18] = dose: 3.12 mg/kg/injection, schedule: Q01DX009 (ip), vehicle: saline with Tween-80
[19] = dose: 25.0 mg/kg/injection, schedule: Q01DX009 (ip), vehicle: saline with Tween-80

Measured: T/C

CN(C)CCCNc1nnc(NCCCN(C)C)c2cc3ccccc3cc12
inactive: dose: 7.5 mg/kg/injection, schedule: Q01DX005 (ip), vehicle: saline 98 % of control | dose: 15.0 mg/kg/injection, schedule: Q01DX005 (ip), vehicle: saline 94 % of control | dose: 30.0 mg/kg/injection, schedule: Q01DX005 (ip), vehicle: saline 110 % of control

C=C(C#N)C1OC2OC(C)(C)OC2C1OC (configuration not stated)
inactive: [1] 107 % of control | [2] 118 % of control

COc1c(Br)cc(/C=C/[N+](=O)[O-])cc1Br
inactive: [3] 124 % of control | [4] 112 % of control

CCOC(=O)c1cc(-c2ccccc2)c(OC)c(=O)nc1-c1ccccc1
inactive: dose: 25.0 mg/kg/injection, schedule: Q01DX005 (ip), vehicle: saline with Tween-80 100 % of control | [1] 100 % of control | [2] 100 % of control | [5] 112 % of control

COC(=O)c1nn(-c2ccccc2)c(C(=O)OC)c1C(=O)OC
inactive: dose: 100.0 mg/kg/injection, schedule: Q01DX001 (ip), vehicle: saline with Tween-80 111 % of control | dose: 200.0 mg/kg/injection, schedule: Q01DX001 (ip), vehicle: saline with Tween-80 112 % of control | dose: 400.0 mg/kg/injection, schedule: Q01DX001 (ip), vehicle: saline with Tween-80 98 % of control

CC(C)C(NC(=O)C(NC(=O)C(CCCN=C(N)N)NC(=O)C(N)CCCCN)C(C)C)C(N)=O (configuration not stated) (H-KRVV-NH2; configuration not given here)
inactive: dose: 12.5 mg/kg/injection, schedule: Q01DX009 (ip), vehicle: water 114 % of control | dose: 25.0 mg/kg/injection, schedule: Q01DX009 (ip), vehicle: water 104 % of control | dose: 50.0 mg/kg/injection, schedule: Q01DX009 (ip), vehicle: water 110 % of control | dose: 100.0 mg/kg/injection, schedule: Q01DX009 (ip), vehicle: water 104 % of control | dose: 200.0 mg/kg/injection, schedule: Q01DX009 (ip), vehicle: water 99 % of control

CC(C)=CCCC1=C2[C@H](O)C=C(C)C[C@@H]2OC1=O
inactive: [1] 100 % of control | [2] 99 % of control | [5] 101 % of control

O=C(/C=C/c1ccccc1)OCC1=C[C@@H](O)[C@@H]2C=CO[C@@H](OC3OC(CO)C(O)C(O)C3O)[C@H]12 (some centres not stated)
inactive: dose: 12.5 mg/kg/injection, schedule: Q01DX005 (ip), vehicle: Klucel (hydroxypropylcellulose) (HPC) 100 % of control | [6] 93 % of control | [7] 112 % of control | [8] 118 % of control | [9] 115 % of control

COCCOCOCCCC#C[Si](C)(C)C
inactive: [10] 100 % of control | dose: 120.0 mg/kg/injection, schedule: Q01DX005 (ip), vehicle: saline with Tween-80 106 % of control | [11] 106 % of control

CC(=O)OC1CC(c2ccccc2)=NO1 (configuration not stated)
inactive: [12] 106 % of control | [13] 95 % of control | [14] 103 % of control

CCOC12NC(=O)N(C)C1(OCC)C(=O)N(C)C(=O)N2C (configuration not stated)
inactive: [15] 91 % of control | [16] 92 % of control | [17] 88 % of control

O=C(OCOC(=O)N1CCOCC1)N1CCOCC1
inactive: [10] 105 % of control | [11] 94 % of control

COC(=O)NC1C(=O)CCC(=O)C1C(N)=O (configuration not stated)
inactive: dose: 7.5 mg/kg/injection, schedule: Q01DX005 (ip), vehicle: saline with Tween-80 86 % of control | dose: 15.0 mg/kg/injection, schedule: Q01DX005 (ip), vehicle: saline with Tween-80 98 % of control

Cc1cc(OC(=O)Nc2cc([N+](=O)[O-])ccc2C)c(Br)cc1Cl
inactive: dose: 12.5 mg/kg/injection, schedule: Q01DX009 (ip), vehicle: saline 98 % of control | dose: 25.0 mg/kg/injection, schedule: Q01DX009 (ip), vehicle: saline 93 % of control | [15] 117 % of control | dose: 50.0 mg/kg/injection, schedule: Q01DX009 (ip), vehicle: saline 100 % of control

CN(C)Cc1c(O)c2ccc(N(C)C)cc2[nH]c1=O
inactive: [12] 92 % of control | [13] 90 % of control | [14] 96 % of control

COC1(OC)C(c2cccs2)C(C#N)(C#N)C1(OC)OC (configuration not stated)
inactive: [12] 100 % of control | [13] 105 % of control | [14] 100 % of control

O=C(NCCN1CCN2Cc3[nH]c4ccccc4c3CC2C1)c1ccc([N+](=O)[O-])cc1 (configuration not stated)
inactive: dose: 100.0 mg/kg/injection, schedule: Q04DX002 (ip), vehicle: saline with Tween-80 96 % of control | dose: 200.0 mg/kg/injection, schedule: Q04DX002 (ip), vehicle: saline with Tween-80 87 % of control | dose: 400.0 mg/kg/injection, schedule: Q04DX002 (ip), vehicle: saline with Tween-80 86 % of control

Cc1snnc1-c1ccccc1
inactive: [7] 105 % of control | [8] 105 % of control | [9] 96 % of control

Cc1ccc(S(=O)(=O)C(=S)Sc2ccccc2)cc1
inactive: [18] 104 % of control | [3] 105 % of control | dose: 12.5 mg/kg/injection, schedule: Q01DX009 (ip), vehicle: alcohol 104 % of control | [4] 109 % of control | dose: 25.0 mg/kg/injection, schedule: Q01DX009 (ip), vehicle: alcohol 107 % of control | dose: 50.0 mg/kg/injection, schedule: Q01DX009 (ip), vehicle: alcohol 107 % of control | [15] 123 % of control

Brc1cc2c(cc1CC1NCCc3cc4c(cc31)OCO4)OCO2 (configuration not stated)
inactive: dose: 50.0 mg/kg/injection, schedule: Q01DX001 (ip), vehicle: saline + alcohol 97 % of control | dose: 100.0 mg/kg/injection, schedule: Q01DX001 (ip), vehicle: saline + alcohol 100 % of control | dose: 200.0 mg/kg/injection, schedule: Q01DX001 (ip), vehicle: saline + alcohol 103 % of control

CC(C#N)(Cc1ccccc1)Nc1ccccc1 (configuration not stated)
inactive: [15] 95 % of control | [16] 90 % of control | [17] 95 % of control

CC(=O)Nc1ccccc1CO
inactive: [6] 97 % of control | [7] 100 % of control | [8] 100 % of control | [9] 100 % of control

CSc1cccc(NC(=O)Nc2c(C)n(C)n(-c3ccccc3)c2=O)c1
inactive: dose: 50.0 mg/kg/injection, schedule: Q01DX009 (ip), vehicle: Klucel (hydroxypropylcellulose) (HPC) 92 % of control | dose: 100.0 mg/kg/injection, schedule: Q01DX009 (ip), vehicle: Klucel (hydroxypropylcellulose) (HPC) 96 % of control | dose: 200.0 mg/kg/injection, schedule: Q01DX009 (ip), vehicle: Klucel (hydroxypropylcellulose) (HPC) 88 % of control

CCOC(=O)C1=NN(c2ccccc2)C(=O)C1c1ccccc1 (configuration not stated)
inactive: [15] 90 % of control | [16] 93 % of control | [17] 107 % of control

Brc1ccc(C2=CSC3=NCCN23)cc1
inactive: dose: 1.56 mg/kg/injection, schedule: Q01DX009 (ip), vehicle: saline with Tween-80 97 % of control | [18] 94 % of control | [3] 106 % of control and 114 % of control and 93 % of control | [4] 100 % of control and 103 % of control and 122 % of control | dose: 18.75 mg/kg/injection, schedule: Q01DX009 (ip), vehicle: saline with Tween-80 93 % of control | [19] 108 % of control and 113 % of control

Fc1ccc(Nc2c3ccccc3nc3ccccc23)cc1
inactive: [4] 110 % of control | [19] 120 % of control
